Measurements taken from patent US7078380B2, “Antibacterial agents comprising conjugates of glycopeptides and peptidic membrane associating elements” (priority 2000, dated 2006).
Values after ≈ are worked out from the molar mass of the structure shown. Where two headings read alike, the source gives them in different places. Positions of bridges follow the written chain, without caps; N, C: chain ends. Residues, ends and D or L forms follow the SMILES beside them. Chains are numbered I, II in the order given. *: point of attachment. Cys(free,S-linked) = N[C@@H](CS*)C(=O)O; Myristoyl = CCCCCCCCCCCCCC(=O)*; SPy = c1ccc(S*)nc1

Legend:
[1] = test system: Bacillus subtilis strain 168S
Method: Compounds were tested for antimicrobial activity against a variety of bacterial strains that included one or more of the following microorganisms: Escherichia coli strain TG1, Bacillus subtilis strain 168S, Staphylococcus aureus H, Enterococcus faecium STR 207 (Van A resistant phenotype), Enrterococcus faecium STR211 (Vancomycin sensitive phenotype), and Enterococcus faecalis V 583 (Van B resistant phenotype). For the testing of compounds for antimicrobial activity against E. coli and B. subtilis cultures of each bacterial strain were diluted in 2.5 mL of fresh LB broth to approximately 5×10^6 cells/mL for assay. […] Antibacterial activity was determined from inspection of the turbidity of the different cultures and from determination of the optical density of the cultures at a wavelength of 600 nm. For the testing of compounds for antimicrobial activity against E. Faecium STR 207, E. faecium 211, E. faecalis V 583, and S. aureus H, a different procedure was used. These microorganisms were cultured in brain heart/0.5% yeast extract (BHY) broth and incubated overnight at 37° C. A sample of each culture was then diluted 40-fold in fresh BHY broth and incubated at 37° C. for 1 h. The resultant mid-log phase cultures were diluted to 106 cfu/mL, then added to wells of 96-well polypropylene plates. […] The 96-well plates were covered and incubated at 37° C. overnight. Minimum inhibitory concentrations were determined by inspection of turbidity after incubation.

[2] = test system: Escherichia coli strain TG1
Method: (§1) Compounds were tested for antimicrobial activity against a variety of bacterial strains that included one or more of the following microorganisms: Escherichia coli strain TG1, Bacillus subtilis strain 168S, Staphylococcus aureus H, Enterococcus faecium STR 207 (Van A resistant phenotype), Enrterococcus faecium STR211 (Vancomycin sensitive phenotype), and Enterococcus faecalis V 583 (Van B resistant phenotype). For the testing of compounds for antimicrobial activity against E. coli and B. subtilis cultures of each bacterial strain were diluted in 2.5 mL of fresh LB broth to approximately 5×10^6 cells/mL for assay. […] The cultures were grown with shaking for up to 16 h at 37° C. for E. coli cultures and 30° C. for B. subtilis cultures. Antibacterial activity was determined from inspection of the turbidity of the different cultures and from determination of the optical density of the cultures at a wavelength of 600 nm. For the testing of compounds for antimicrobial activity against E. Faecium STR 207, E. faecium 211, E. faecalis V 583, and S. aureus H, a different procedure was used. These microorganisms were cultured in brain heart/0.5% yeast extract (BHY) broth and incubated overnight at 37° C. A sample of each culture was then diluted 40-fold in fresh BHY broth and incubated at 37° C. for 1 h. The resultant mid-log phase cultures were diluted to 106 cfu/mL, then added to wells of 96-well polypropylene plates. […] The 96-well plates were covered and incubated at 37° C. overnight. Minimum inhibitory concentrations were determined by inspection of turbidity after incubation.

[3] = test system: sensitised sheep erythrocytes; assay: Haemolysis assay; type: cell-based; conditions: 1 hour at 37° C., printed μM or uM, read-out: LC50 (concentration of compound required to give 50% lysis)
Method: (§2) Lysis of sensitised sheep erythrocytes was measured using a standard haemolytic assay using a v-bottom microtitre plate format as follows:
(§3) 50 microlitres of a range of concentrations of compound diluted in Hepes buffer were mixed with 100 microlitres of sensitised sheep erythrocytes and then incubated for 1 hour at 37° C. Samples were spun at 1600 rpm at ambient temperature for 3 minutes before transferring 150 microlitres of supernatant to a flat bottom microtitre plate and determining the absorption at 405 or 410 nm. Maximum lysis (Amax) was determined by incubating serum with erythrbcytes in the presence of human serum diluted 1:400 (final concentration in assay mixture) in 0.1 M Hepes/0.15 M NaCl/0.1% gelatin pH 7.4. Background lysis (Ao) was determined by incubating erythrocytes in the absence of any serum or compound, using PBS as a control.

[4] = test system: Enterococcus faecium STR 211 (Vancomycin sensitive phenotype)
Method: as §1

[5] = test system: Enterococcus faecalis V 583 (Van B resistant phenotype); conditions: E. faecalis V 583
Method: as §1

Staphylococcus aureus H = test system: Staphylococcus aureus H
Method: as §1

[6] = test system: Enterococcus faecium STR 207 (Van A resistant phenotype); conditions: E. faecium STR 207
Method: as §1

physchem = conditions: dimethylsulphoxide
Method: The 2-thiopyridyl content of the peptide was measured by dissolving it to around 0.03 mM to 0.2 mM in 0.1 M Sodium Borate pH 8.0 and reducing by addition of dithiothreitol to 5 mM. The change in optical density at 343 nm was used to calculate the amount of pyridine 2-thione released using an extinction coefficient at this wavelength of 8080 cm−1 M−1.

Haemolysis assay = type: cell-based; conditions: sensitised sheep erythrocytes, 1 hour at 37° C., printed μM or uM, read-out: LC50 (concentration of compound required to give 50% lysis)
Method: as §2, §3

[7] = STR 211 (Vancomycin sensitive phenotype)

Row | SMILES | minimum inhibitory concentration to prevent the growth of B. subtilis strain 168S ([1]; 6 h) | minimum inhibitory concentration to prevent the growth of B. subtilis strain 168S ([1]; 24 h) | minimum inhibitory concentration to prevent the growth of E. coli strain TG1 ([2]; strain TG1, 6 h) | minimum inhibitory concentration to prevent the growth of E. coli strain TG1 ([2]; strain TG1, 16 h) | CC50 [3] | minimum inhibitory concentration ([4]; E. faecium STR 211) | minimum inhibitory concentration [5] | minimum inhibitory concentration (Staphylococcus aureus H; S. aureus H) | minimum inhibitory concentration [4, 7] | minimum inhibitory concentration (Staphylococcus aureus H; H) | minimum inhibitory concentration [6] | solubility (physchem) | CC50 at 1 hour (Haemolysis assay)
1 | CCCCCCCCCCCCCC(=O)NCC(=O)N[C@@H](CO)C(=O)N[C@@H](CO)C(=O)N[C@@H](CCCCN)C(=O)N[C@@H](CO)C(=O)N1CCC[C@H]1C(=O)N[C@@H](CO)C(=O)N[C@@H](CCCCN)C(=O)N[C@@H](CCCCN)C(=O)N[C@@H](CCCCN)C(=O)N[C@@H](CCCCN)C(=O)N[C@@H](CCCCN)C(=O)N[C@@H](CCCCN)C(=O)N1CCC[C@H]1C(=O)NCC(=O)N[C@@H](CC(=O)O)C(=O)N[C@@H](CSSC[C@H](NC(=O)[C@H](CC(=O)O)NC(=O)CNC(=O)[C@@H]1CCCN1C(=O)[C@H](CCCCN)NC(=O)[C@H](CCCCN)NC(=O)[C@H](CCCCN)NC(=O)[C@H](CCCCN)NC(=O)[C@H](CCCCN)NC(=O)[C@H](CCCCN)NC(=O)[C@H](CO)NC(=O)[C@@H]1CCCN1C(=O)[C@H](CO)NC(=O)[C@H](CCCCN)NC(=O)[C@H](CO)NC(=O)[C@H](CO)NC(=O)CNC(=O)CCCCCCCCCCCCC)C(N)=O)C(N)=O [APT540] (I: Myristoyl-GSSKSPSKKKKKKPGDC-NH2 / II: Myristoyl-GSSKSPSKKKKKKPGDC-NH2; disulfide I:17-II:17) | 7 µg/mL | 7 µg/mL | 67 µg/mL | 200 µg/mL |  |  |  |  |  |  |  |  | 
2 | CN[C@H](CC(C)C)C(=O)N[C@H]1C(=O)N[C@@H](CC(N)=O)C(=O)N[C@H]2C(=O)N[C@H]3C(=O)N[C@H](C(=O)N[C@H](C(=O)NCCS)c4cc(O)cc(O)c4-c4cc3ccc4O)[C@H](O)c3ccc(c(Cl)c3)Oc3cc2cc(c3O[C@@H]2O[C@H](CO)[C@@H](O)[C@H](O)[C@H]2O[C@H]2C[C@](C)(N)[C@H](O)[C@H](C)O2)Oc2ccc(cc2Cl)[C@H]1O.Cl [APT2035] |  |  |  |  | > 166 µM | 2 µg/mL | 16 µg/mL | 8 µg/mL |  |  |  |  | 
3 | CCCCCCCCCCCCCC(=O)NCC(=O)N[C@@H](CO)C(=O)N[C@@H](CO)C(=O)N[C@@H](CCCCN)C(=O)N[C@@H](CO)C(=O)N1CCC[C@H]1C(=O)N[C@@H](CO)C(=O)N[C@@H](CCCCN)C(=O)N[C@@H](CCCCN)C(=O)N[C@@H](CCCCN)C(=O)N[C@@H](CCCCN)C(=O)N[C@@H](CCCCN)C(=O)N[C@@H](CCCCN)C(=O)N1CCC[C@H]1C(=O)NCC(=O)N[C@@H](CC(=O)O)C(=O)N[C@@H](CSSc1ccccn1)C(N)=O [APT542] (Myristoyl-GSSKSPSKKKKKKPGDC(SPy)-NH2) | 3 µg/mL | 22 µg/mL | 22 µg/mL | 67 µg/mL |  |  | 256 µg/mL (≈ 121 µM) |  | 32 µg/mL (≈ 15.2 µM) | 64 µg/mL (≈ 30.4 µM) | 64 µg/mL (≈ 30.4 µM) | ≥ 10000 µg/mL | 
4 | CN[C@H](CC(C)C)C(=O)N[C@H]1C(=O)N[C@@H](CC(N)=O)C(=O)N[C@H]2C(=O)N[C@H]3C(=O)N[C@H](C(=O)N[C@H](C(=O)NCCSSc4ccccn4)c4cc(O)cc(O)c4-c4cc3ccc4O)[C@H](O)c3ccc(c(Cl)c3)Oc3cc2cc(c3O[C@@H]2O[C@H](CO)[C@@H](O)[C@H](O)[C@H]2O[C@H]2C[C@](C)(N)[C@H](O)[C@H](C)O2)Oc2ccc(cc2Cl)[C@H]1O.Cl [APT2033] |  |  |  |  | > 166 µM | 2 µg/mL | 32 µg/mL | 4 µg/mL |  |  | 256 µg/mL |  | 
5 | CCCCCCCCCCCCCC(=O)NCC(=O)N[C@@H](CO)C(=O)N[C@@H](CO)C(=O)N[C@@H](CCCCN)C(=O)N[C@@H](CO)C(=O)N1CCC[C@H]1C(=O)N[C@@H](CO)C(=O)N[C@@H](CCCCN)C(=O)N[C@@H](CCCCN)C(=O)N[C@@H](CCCCN)C(=O)N[C@@H](CCCCN)C(=O)N[C@@H](CCCCN)C(=O)N[C@@H](CCCCN)C(=O)N1CCC[C@H]1C(=O)NCC(=O)N[C@@H](CC(=O)O)C(=O)N[C@@H](CSSCCNC(=O)[C@H]1NC(=O)[C@H]2NC(=O)[C@H](NC(=O)[C@@H]3NC(=O)[C@H](CC(N)=O)NC(=O)[C@H](NC(=O)[C@@H](CC(C)C)NC)[C@H](O)c4ccc(c(Cl)c4)Oc4cc3cc(c4O[C@@H]3O[C@H](CO)[C@@H](O)[C@H](O)[C@H]3O[C@H]3C[C@](C)(N)[C@H](O)[C@H](C)O3)Oc3ccc(cc3Cl)[C@H]2O)c2ccc(O)c(c2)-c2c(O)cc(O)cc21)C(N)=O [APT2036] |  |  |  |  |  | 8 µg/mL (≈ 2.28 µM) | 8 µg/mL (≈ 2.28 µM) | 4 µg/mL (≈ 1.14 µM) |  |  | 8 µg/mL (≈ 2.28 µM) |  | 71 µM
6 | CCCCCCCCCCCCCC(=O)NCC(=O)N[C@@H](CO)C(=O)N[C@@H](CO)C(=O)N[C@@H](CCCCN)C(=O)N[C@@H](CO)C(=O)N1CCC[C@H]1C(=O)N[C@@H](CO)C(=O)N[C@@H](CCCCN)C(=O)N[C@@H](CCCCN)C(=O)N[C@@H](CCCCN)C(=O)N[C@@H](CCCCN)C(=O)N[C@@H](CCCCN)C(=O)N[C@@H](CCCCN)C(=O)N1CCC[C@H]1C(=O)NCC(=O)N[C@@H](CC(=O)O)C(=O)N[C@@H](CSSC[C@H](N)C(=O)O)C(N)=O [APT541] (Myristoyl-GSSKSPSKKKKKKPGDC(Cys(free,S-linked))-NH2) |  |  |  |  |  |  | 256 µg/mL (≈ 121 µM) |  | 64 µg/mL (≈ 30.2 µM) | 64 µg/mL (≈ 30.2 µM) |  |  | 
7 | CCCCCCCCCCCCCC(=O)NCC(=O)N[C@@H](CO)C(=O)N[C@@H](CO)C(=O)N[C@@H](CCCCN)C(=O)N[C@@H](CO)C(=O)N1CCC[C@H]1C(=O)N[C@@H](CO)C(=O)N[C@@H](CCCCN)C(=O)N[C@@H](CC(=O)O)C(=O)N[C@@H](CCCCN)C(=O)N[C@@H](CC(=O)O)C(=O)N[C@@H](CCCCN)C(=O)N[C@@H](CC(=O)O)C(=O)N1CCC[C@H]1C(=O)NCC(=O)N[C@@H](CC(=O)O)C(=O)N[C@@H](CSSCCNC(=O)[C@H]1NC(=O)[C@H]2NC(=O)[C@H](NC(=O)[C@@H]3NC(=O)[C@H](CC(N)=O)NC(=O)[C@H](NC(=O)[C@@H](CC(C)C)NC)[C@H](O)c4ccc(c(Cl)c4)Oc4cc3cc(c4O[C@@H]3O[C@H](CO)[C@@H](O)[C@H](O)[C@H]3O[C@H]3C[C@](C)(N)[C@H](O)[C@H](C)O3)Oc3ccc(cc3Cl)[C@H]2O)c2ccc(O)c(c2)-c2c(O)cc(O)cc21)C(N)=O [APT2041] |  |  |  |  |  | 4 µg/mL (≈ 1.15 µM) | 16 µg/mL (≈ 4.62 µM) | 8 µg/mL (≈ 2.31 µM) |  |  | 16 µg/mL (≈ 4.62 µM) |  | 4.5 µM
